From PMC12567347, “Angiotensin II/Angiotensin I Ratio as a New Pharmacodynamic Parameter for Population Modelling in Healthy Adults and Children with Heart Failure Treated with Enalapril” (Pharmaceutics, 2025)

How the values were obtained:
[1] = Serum enalaprilat concentrations in children with heart failure treated with enalapril orodispersible minitablets; format: in vivo, human; details: median first dose 0.06 mg/kg, median daily dose 0.11 mg/kg enalapril maleate
Experimental: For the studies, a dosing regimen with age- and weight-dependent recommended titration doses, target doses, and maximum doses was developed using physiologically based pharmacokinetic simulation (Table S2). The appropriate dosage for each subject was selected based on the judgment of the investigator. Daily doses ≤ 0.25 mg were administered once daily in the morning, and daily doses > 0.25 mg were administered in two equal divided doses in the morning and evening. The required number of orodispersible minitablets with 0.25 mg enalapril maleate or 1 mg enalapril maleate (now approved as Aqumeldi®, Proveca Pharma Limited, Dublin, Ireland) was placed in the patient’s cheek pouch. The orodispersible minitablets rapidly disintegrated into small, easily swallowable particles. To facilitate swallowing, a fluid of the patient’s/parent’s choice (e.g., breast milk, formula milk, cow milk, water) could be administered.
(§1) In the pharmacokinetic bridging studies, a pharmacokinetic/pharmacodynamic profile was usually obtained in ACE inhibitor-naïve subjects at the initial dose visit, with pharmacokinetic samples collected before and 1, 2, 4, 6, and 12 h after enalapril orodispersible minitablet administration, as well as pharmacodynamic samples collected before and 4 h after administration. […]

[2] = parameters: method as in PMID 26256099; details: parameters estimated in children extrapolated to an adult weight of 70 kg; cited from earlier work
[3] = test system: ACE activity; parameters: method as in PMID 8512763; details: eight infants with congestive heart failure, after four hours, single dose of 0.25 mg/kg enalapril maleate; cited from earlier work
[4] = molecular target: T1, angiotensin-converting enzyme (ACE) (Homo sapiens, UniProt P12821); experiment: Percentage change in the angiotensin II/angiotensin I ratio four hours after the initial enalapril dose in children with heart failure; format: in vivo; details: eight children with heart failure, four hours after first dose, median 0.06 mg/kg enalapril maleate
T1 construct: from tissue; host or cells: in vivo in human subjects; ACE activity read indirectly from the plasma angiotensin II/angiotensin I ratio
T1 sequence (P12821 30-1306): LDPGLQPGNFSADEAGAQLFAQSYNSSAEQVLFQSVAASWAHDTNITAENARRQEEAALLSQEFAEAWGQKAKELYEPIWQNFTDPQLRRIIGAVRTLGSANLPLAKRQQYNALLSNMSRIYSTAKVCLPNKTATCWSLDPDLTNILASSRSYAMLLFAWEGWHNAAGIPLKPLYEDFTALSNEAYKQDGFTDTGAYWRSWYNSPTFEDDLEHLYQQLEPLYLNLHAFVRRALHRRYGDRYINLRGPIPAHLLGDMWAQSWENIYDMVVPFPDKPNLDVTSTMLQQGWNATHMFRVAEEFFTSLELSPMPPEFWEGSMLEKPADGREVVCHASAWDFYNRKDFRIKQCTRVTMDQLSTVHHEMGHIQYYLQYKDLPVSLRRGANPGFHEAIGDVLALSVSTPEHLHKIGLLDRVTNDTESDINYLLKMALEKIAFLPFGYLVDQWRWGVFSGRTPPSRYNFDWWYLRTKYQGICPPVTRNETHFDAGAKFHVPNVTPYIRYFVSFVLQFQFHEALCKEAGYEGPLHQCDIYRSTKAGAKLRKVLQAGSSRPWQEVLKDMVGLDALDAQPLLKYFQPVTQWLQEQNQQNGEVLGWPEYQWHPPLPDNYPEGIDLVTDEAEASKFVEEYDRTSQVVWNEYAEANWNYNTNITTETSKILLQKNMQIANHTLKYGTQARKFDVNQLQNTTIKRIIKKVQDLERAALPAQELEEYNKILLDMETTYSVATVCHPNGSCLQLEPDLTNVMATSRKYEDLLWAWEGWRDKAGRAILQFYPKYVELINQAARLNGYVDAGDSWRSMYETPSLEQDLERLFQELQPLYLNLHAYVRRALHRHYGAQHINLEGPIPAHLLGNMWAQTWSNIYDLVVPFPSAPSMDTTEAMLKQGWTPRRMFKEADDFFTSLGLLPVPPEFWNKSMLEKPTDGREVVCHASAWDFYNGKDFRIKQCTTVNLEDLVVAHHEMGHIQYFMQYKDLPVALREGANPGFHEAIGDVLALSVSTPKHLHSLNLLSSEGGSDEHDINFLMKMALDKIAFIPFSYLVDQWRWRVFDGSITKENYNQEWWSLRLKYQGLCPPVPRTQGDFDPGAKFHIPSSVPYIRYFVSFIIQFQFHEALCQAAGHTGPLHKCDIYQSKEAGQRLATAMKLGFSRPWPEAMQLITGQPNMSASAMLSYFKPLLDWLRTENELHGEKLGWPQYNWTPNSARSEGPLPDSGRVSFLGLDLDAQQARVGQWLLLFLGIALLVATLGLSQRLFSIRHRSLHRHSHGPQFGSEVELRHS
Experimental: as §1, with “administration. Alternatively, the pharmacokinetic/pharmacodynamic profile could also be obtained after reaching steady state at the optimal dose. In this case, the 12 h pharmacokinetic sample was omitted. Single pharmacokinetic and pharmacodynamic samples were collected in immediate succession during the remaining study visits.” for “administration.”
For the simultaneous determination of several angiotensin peptides, including angiotensin I and angiotensin II, a validated multiplex liquid chromatography high-resolution mass spectrometry method was applied. Following precipitation and solid-phase extraction, the samples were analyzed using a Nexera XR liquid chromatography system (Shimadzu, Duisburg, Germany) coupled to a TripleTOF® 6600 mass spectrometer from AB Sciex (Concord, ON, Canada). […]
The percentage change in the angiotensin II/angiotensin I ratio was calculated in children with heart failure in whom an angiotensin II/angiotensin I ratio was available before the first dose of enalapril and four hours afterwards.

highest measured enalaprilat concentration [1] | SMILES | apparent central volume of distribution of enalaprilat [2] | apparent clearance of enalaprilat [2] | mean inhibition of ACE activity [3] | decrease in angiotensin II/angiotensin I ratio, median [4] | decrease in angiotensin II/angiotensin I ratio, range [4]
18.3 µg/L | C[C@H](N[C@@H](CCc1ccccc1)C(=O)O)C(=O)N1CCC[C@H]1C(=O)O [enalaprilat] | 168.8 L | 18.2 L/h |  |  | 
 | CCOC(=O)[C@H](CCc1ccccc1)N[C@@H](C)C(=O)N1CCC[C@H]1C(=O)O [enalapril] |  |  | 75.5% | 79.3% | 21.4–92.7%
